# Source: patent publication US11053206B2, “Hydrofluorocarboximidate and methods of making and using the same” (3M INNOVATIVE PROPERTIES COMPANY, priority 2017, dated 2021)
# Experiment: Thermal stability (purity by GC-FID after heating with absorbent)
# Type: physicochemical
# Conditions: initial purity 97.7%
# Description: The samples were stirred for 24 h at 50° C. and then analyzed for purity by GC-FID. The % purity EX-6 initially was 97.7%. Shown in Table 2 below are the % purity after the thermal stability test. All of the results are within error of the test method.
smiles,measurement,setting,value
"CO/C(=N\C(F)(F)C(F)(F)C(F)(F)F)C(F)(F)C(F)(F)F [EX-6, methyl 2,2,3,3,3-pentafluoro-N-(perfluoropropyl)propanimidate]",Purity (%) after thermal stability test,"100 mg 4 Angstrom Molecular Sieves, 1 g stirred 24 h at 50° C.",98.0%
same,Purity (%) after thermal stability test,"100 mg Activated Carbon, 1 g stirred 24 h at 50° C.",98.2%
same,Purity (%) after thermal stability test,"100 mg Basic Alumina, 1 g stirred 24 h at 50° C.",98.0%
same,Purity (%) after thermal stability test,"100 mg K2CO3, 1 g stirred 24 h at 50° C.",97.9%
same,Purity (%) after thermal stability test,"100 mg Silica Gel, 1 g stirred 24 h at 50° C.",97.9%
same,Purity (%) after thermal stability test,"No absorbent, 1 g stirred 24 h at 50° C.",97.7%
